Assay results taken from patent US10787432B2, “N-[(pyridyloxy)propanyl]benzamides” (Boehringer Ingelheim International GmbH, priority 2016, dated 2020).
Read-outs that look alike come from different tables or passages of the source.

Columns and labels:
[1] = Assay C: Metabolic stability in human liver microsomes (Human MST); assay type: in vitro ADME; conditions: pooled human liver microsomes, pH 7.6; human liver microsomes 1 mg/mL, compound 1 μM, 37° C., NADPH; read-out: Human MST t1/2
Outline: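 Test compound (1 μM) was incubated at 37 °C with pooled human liver microsomes (1 mg/mL protein) in 0.1 M TRIS pH 7.6 with 5 mM MgCl2, and reactions were started with 1 mM NADPH. Aliquots were quenched at several time points and parent compound was quantified by LC-MS/MS. t1/2 came from the slope of the semi-log concentration–time plot.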

[2] = biological target: T1, human Orexin 1 receptor (Homo sapiens, UniProt O43613); assay: Assay A: In vitro testing of OX1R potency: OX1R IP1 (HTRF, CHO-K1/hOX1 cells, Orexin A as agonist); assay type: cell-based; conditions: for Kb: read-out: OX1R Kb (Orexin A concentration used)
T1 construct: stably expressing the full-length human Orexin 1 receptor; expressed in transfected cells; host or cells: CHO-K1 (CHO-K1/hOX1), co-expressing aequorin
T1 sequence (O43613 1-425): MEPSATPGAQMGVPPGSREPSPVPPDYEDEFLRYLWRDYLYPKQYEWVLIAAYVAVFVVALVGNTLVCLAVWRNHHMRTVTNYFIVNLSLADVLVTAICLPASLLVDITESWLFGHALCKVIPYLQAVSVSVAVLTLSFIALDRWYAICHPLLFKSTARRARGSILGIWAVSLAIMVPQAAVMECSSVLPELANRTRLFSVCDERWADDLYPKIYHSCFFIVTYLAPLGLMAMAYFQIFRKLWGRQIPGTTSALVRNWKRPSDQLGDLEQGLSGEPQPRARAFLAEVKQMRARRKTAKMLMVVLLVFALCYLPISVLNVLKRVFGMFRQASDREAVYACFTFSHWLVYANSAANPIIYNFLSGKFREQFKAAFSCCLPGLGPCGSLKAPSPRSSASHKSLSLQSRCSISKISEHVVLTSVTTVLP

[3] = biological target: T2, human orexin 2 receptor (Homo sapiens, UniProt O43614); assay: Assay B: In vitro testing of OX2R potency: OX2R IP1 (HTRF, CHO-K1/hOX2 cells, Orexin A as agonist); assay type: cell-based; conditions: Orexin A 0.5 nM
T2 construct: stably expressing the full-length human orexin 2 receptor; expressed in transfected cells; host or cells: CHO-K1 (CHO-K1/hOX2), co-expressing aequorin
T2 sequence (O43614 1-444): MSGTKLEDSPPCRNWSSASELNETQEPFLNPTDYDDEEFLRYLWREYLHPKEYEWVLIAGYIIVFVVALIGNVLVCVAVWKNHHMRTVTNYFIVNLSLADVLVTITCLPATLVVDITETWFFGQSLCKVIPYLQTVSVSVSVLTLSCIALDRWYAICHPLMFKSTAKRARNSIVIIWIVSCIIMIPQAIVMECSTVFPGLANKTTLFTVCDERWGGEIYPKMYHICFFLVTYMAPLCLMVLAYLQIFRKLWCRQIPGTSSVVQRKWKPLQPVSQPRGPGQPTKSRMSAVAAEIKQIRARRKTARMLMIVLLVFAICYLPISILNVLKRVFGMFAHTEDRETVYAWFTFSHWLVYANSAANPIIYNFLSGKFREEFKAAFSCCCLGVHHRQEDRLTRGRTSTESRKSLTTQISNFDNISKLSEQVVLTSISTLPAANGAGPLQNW
Outline: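 CHO-K1 cells stably expressing full-length human OX2R, pretreated 15 min at room temperature with compound (8-point, 1% DMSO) in HBSS/HEPES/BSA with 50 mM LiCl, pH 7.4, then stimulated 60 min at 37 °C with 0.5 nM Orexin A. IP1 by HTRF (665/615 ratio); IC50 from 4-parameter fit converted to agonist-independent Kb.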

| Structure (SMILES) | half-life at 1 μM [1] [min] | OX2R Kb/OX1R Kb ([2]; OX1R Kb at 50 nM Orexin A) | Kb ([2]; Orexin A 50 nM) [nM] | Kb [3] [nM] | OX2R Kb/OX1R Kb ([2]; OX1R Kb at 0.5 nM Orexin A) | Kb ([2]; Orexin A 0.5 nM) [nM] |
| --- | --- | --- | --- | --- | --- | --- |
| CCN(C(=O)c1ccccc1-n1nccn1)[C@@H](C)COc1ccc(Cl)cn1 [Example 46] | 35 | 56 | 0.66 | 37 |  |  |
| CCN(C(=O)c1cc(F)ccc1-n1cccn1)[C@@H](C)COc1ncc(C(F)(F)F)cc1F [Example 124] | 10 |  |  | 1060 | 278 | 3.8 |
| CCN(C(=O)c1cc(C#N)ccc1-n1nccn1)[C@@H](C)COc1ncc(C(F)(F)F)cc1F [Example 57] | > 130 | 214 | 0.95 | 203 |  |  |
| CCN(C(=O)c1ccccc1-c1cnc(OC)nc1)[C@@H](C)COc1ccc(C(F)(F)F)cn1 [Example 79] | 12 | 58 | 1.6 | 92 | 66 | 1.4 |
| CCN(C(=O)c1cccc(F)c1-c1nnc(C)o1)[C@@H](C)COc1ccc(Cl)cn1 [Example 36] | 72 |  |  | 542 | 139 | 3.9 |
| CCN(C(=O)c1c(-n2nccn2)ccc(C)c1F)[C@@H](C)COc1ncc(C(F)(F)F)cc1F [Example 127] | 15 | 377 | 0.13 | 49 |  |  |
| CCN(C(=O)c1ccc(F)c(F)c1-n1nccn1)[C@@H](C)COc1ncc(C(F)(F)F)cc1F [Example 50] | 46 | 410 | 0.69 | 283 |  |  |
| CCN(C(=O)c1ccc(OC)cc1-c1ncccn1)[C@@H](C)COc1ccc(C(F)(F)F)cn1 [Example 118] | 15 | 2875 | 0.032 | 92 |  |  |
| CCN(C(=O)c1ccc(F)cc1-n1nccn1)[C@@H](C)COc1ccc(C(F)(F)F)cn1 [Example 1] | 38 |  |  | 58 | 171 | 0.34 |
| CCN(C(=O)c1ccccc1-c1ccc(=O)n(C)c1)[C@@H](C)COc1ccc(C(F)(F)F)cn1 [Example 96] | 34 |  |  | 1610 | 217 | 7.4 |
